“Also recorded” adds a separate entry of the source.
Columns and labels:
[1] = target: T1, PRMT6 (Homo sapiens, UniProt Q96LA8); test: PRMT6 methyltransferase scintillation proximity assay; assay type: biochemical
T1 construct: 1–375; made in house
Experimental: (§4) In the scintillation proximity assay (SPA), specific amounts of enzyme and biotinylated peptide substrate were mixed with the compound and the reaction was initiated by adding SAM. IC50 values were measured at the apparent Km concentrations of the substrate and SAM. The reaction was quenched by adding an equal volume of 7.5 M guanidine hydrochloride, and the reaction product was measured by SPA using FlashPlate Plus and TopCount NXT HTS plate reader (both from Perkin Elmer Life Sciences).
(§5) The selectivity assay was performed as previously described [31]. The effect of test compounds on the methyltransferase activities of Euchromatic histone-lysine N-methyltransferase 2 (G9a), G9a-like protein (GLP), Suppressor of variegation 3-9 homolog (SUV39H)1, SUV39H2, SUV420H1, SUV420H2, SET domain (SETD)2, SETD8, SETD bifurcated 1 (SETDB1), SETD7, Mixed-lineage leukemia (MLL)1 trimeric complex, MLL3 pentameric complex, Enhancer of zeste homolog (EZH)2 trimeric complex, PRMT1, PRMT3, PRMT4, PRMT5/Methylosome protein (MEP)50 complex, PRMT6, PRMT7, PRMT8, PRMT9, PR domain zinc finger protein (PRDM)9, SET and MYND domain-containing (SMYD)2, SMYD3, and DNA methyltransferase (DNMT)1 was assessed by monitoring the incorporation of a tritium-labeled methyl group into substrates with the scintillation proximity assay [32]. […]

[2] = target: T2, PRMT3 (Homo sapiens, UniProt O60678); test: PRMT3 methyltransferase scintillation proximity assay; assay type: biochemical
T2 construct: 106–426 (within the); made in house
Experimental: as §4, §5

[3] = target: T3, PRMT5/Methylosome protein (MEP)50 complex (Homo sapiens, UniProt O14744); test: PRMT5 methyltransferase scintillation proximity assay; assay type: biochemical
T3 construct: 1–637 (PRMT5); made in house
Experimental: as §4, §5

[4] = target: T4, PRMT7 (Homo sapiens, UniProt Q9NVM4); test: PRMT7 methyltransferase scintillation proximity assay; assay type: biochemical
T4 construct: 1–692; made in house
Experimental: as §4, §5

[5] = target: T5, PRMT8 (Homo sapiens, UniProt Q9NR22); test: PRMT8 methyltransferase scintillation proximity assay; assay type: biochemical
T5 construct: 1–394; made in house
Experimental: as §4, §5

[6] = target: T6, PRMT9 (Homo sapiens, UniProt Q6P2P2); test: PRMT9 methyltransferase scintillation proximity assay; assay type: biochemical
T6 construct: 1–845; made in house
Experimental: as §4

[7] = test system: 24 protein lysine methyltransferases and DNA methyltransferases; test: Selectivity assay against other methyltransferases; assay type: biochemical; conditions: for inhibition of other methyltransferases: tested at 1 and 10 μM
Experimental: The selectivity assay was performed as previously described [31]. The effect of test compounds on the methyltransferase activities of Euchromatic histone-lysine N-methyltransferase 2 (G9a), G9a-like protein (GLP), Suppressor of variegation 3-9 homolog (SUV39H)1, SUV39H2, SUV420H1, SUV420H2, SET domain (SETD)2, SETD8, SETD bifurcated 1 (SETDB1), SETD7, Mixed-lineage leukemia (MLL)1 trimeric complex, MLL3 pentameric complex, Enhancer of zeste homolog (EZH)2 trimeric complex, PRMT1, PRMT3, PRMT4, PRMT5/Methylosome protein (MEP)50 complex, PRMT6, PRMT7, PRMT8, PRMT9, PR domain zinc finger protein (PRDM)9, SET and MYND domain-containing (SMYD)2, SMYD3, and DNA methyltransferase (DNMT)1 was assessed by monitoring the incorporation of a tritium-labeled methyl group into substrates with the scintillation proximity assay [32]. Briefly, a 10-μl reaction containing ^3H-SAM and substrate at concentrations close to the apparent Km values for each enzyme was prepared. Two concentrations (1 and 10 μM) of compound were tested. The reactions were quenched with 10 μl of 7.5 M guanidine hydrochloride; 180 μl of 20 mM Tris buffer (pH 8.0) were added, and the mixture was transferred to a 96-well FlashPlate followed by incubation for 1 h. The counts per minute (CPM) was measured on a TopCount plate reader; the CPM in the absence of compound or enzyme was defined as 100% activity and background (0%), respectively, for each dataset.

[8] = target: T7, PRMT4 (Homo sapiens, UniProt Q86X55); test: Differential static light scattering (DSLS) binding; conditions: at 80 μM
T7 sequence (Q86X55 1-608): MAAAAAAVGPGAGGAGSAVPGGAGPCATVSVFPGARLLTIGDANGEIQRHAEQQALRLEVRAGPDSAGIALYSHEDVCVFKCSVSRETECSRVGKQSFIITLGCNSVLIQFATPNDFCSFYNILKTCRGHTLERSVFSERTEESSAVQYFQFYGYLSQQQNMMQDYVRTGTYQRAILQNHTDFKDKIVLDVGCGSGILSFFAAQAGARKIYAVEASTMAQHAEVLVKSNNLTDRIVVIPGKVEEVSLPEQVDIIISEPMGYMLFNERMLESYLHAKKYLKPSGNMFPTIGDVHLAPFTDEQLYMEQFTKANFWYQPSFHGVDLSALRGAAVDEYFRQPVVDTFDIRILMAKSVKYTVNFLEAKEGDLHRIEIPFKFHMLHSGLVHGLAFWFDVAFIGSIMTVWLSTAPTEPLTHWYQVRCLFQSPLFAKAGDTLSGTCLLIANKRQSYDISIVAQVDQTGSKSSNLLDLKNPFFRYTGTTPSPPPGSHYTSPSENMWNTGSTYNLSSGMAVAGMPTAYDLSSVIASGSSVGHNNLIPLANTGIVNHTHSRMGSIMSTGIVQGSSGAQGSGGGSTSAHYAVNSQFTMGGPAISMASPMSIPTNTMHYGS
Experimental: DSLS was performed as previously described [34] using 100 mM HEPES (pH 7.5), 150 mM NaCl, 3% DMSO, and 0.4 mg ml^−1 (6 μM) protein in a 10-μl reaction volume.

[9] = test system: dimethylation of BAF155 (PRMT4 substrate); test: BAF155 dimethylation in HEK293 cells, western blotting; assay type: cell-based, human; conditions: 3 days
Experimental: (§6) Graphs represent nonlinear curve fits of dimethyl-BAF155 and dimethyl-MED12 signal intensities normalized to total BAF155 or MED12, respectively. Data represent mean ± SEM of two independent experiments prepared in triplicate.
(§7) After incubation for 3 min at room temperature, sodium dodecyl sulfate (SDS) was added to a final concentration of 1%. […] Blots were blocked for 1 h in blocking buffer composed of 5% milk and 0.1% Tween 20 in phosphate-buffered saline (PBS) and then incubated overnight at 4°C in blocking buffer containing primary antibodies against MED12 (1:1000) (Abnova, Taipei, Taiwan; H00009968-A01), MED12 with asymmetrically dimethylated arginine (1:1000; gift from Dr. Mark Bedford and Cell Signaling Technology, Danvers, MA, USA), BAF155 (1:500) (Santa Cruz Biotechnology, Santa Cruz, CA, USA; sc32763), or R1064-dimethylated BAF155 (1:2000) (Millipore; ABE1339). […] The signal was detected on an Odyssey scanner (LI-COR Biosciences) at 800 and 700 nm.

[10] = test system: dimethylation of MED12 (PRMT4 substrate); test: MED12 dimethylation in HEK293 cells, western blotting; assay type: cell-based, human; conditions: 3 days
Experimental: as §6, §7

[11] = test system: panel of 89 (69 solid and 20 hematologic) cancer cell lines; test: Cell panel viability, CellTiter-Glo, 3 days; assay type: cell-based, human; conditions: 3 μM
Experimental: In addition, to further validate the role of PRMT4 in MM cell growth, we performed PRMT4 knockdown in NCI-H929 cells and observed PRMT4 knockdown-induced growth inhibition (Supplementary Figure 5). Thus, pharmacological inhibition of PRMT4 by small molecules may be a therapeutic option for some MM treatment.
(§1) Red dots indicate MM cell lines. […] Data are presented as mean ± standard deviation (n = 3). IC50 values were calculated by nonlinear regression analysis of % inhibition. […] ATP concentration was calculated based on chemiluminescence values relative to the 0 nM value (control) in each cell line. PRMT4 mRNA expression levels in MM cells were determined with the Ion Ampliseq transcriptome assay and were normalized to that of glyceraldehyde 3-phosphate dehydrogenase (GAPDH) in each cell line.
(§2) Chemiluminescence was measured with a microplate reader. […] K562 cells were cultured in RPMI 10% FBS.

[12] = test system: KMS-11 cells; test: MM cell growth, CellTiter-Glo, 6 days; assay type: cell-based, human; conditions: KMS-11, 6 days
Experimental: as §1, §2

[13] = test system: KMS-12BM cells; test: MM cell growth, CellTiter-Glo, 6 days; assay type: cell-based, human
Experimental: as §1, §2

[14] = test system: KMS-12PE cells; test: MM cell growth, CellTiter-Glo, 6 days; assay type: cell-based, human
Experimental: as §1, §2

[15] = test system: KMS-20 cells; test: MM cell growth, CellTiter-Glo, 6 days; assay type: cell-based, human; conditions: KMS-20, 6 days
Experimental: as §1, §2

[16] = test system: KMS-26 cells; test: MM cell growth, CellTiter-Glo, 6 days; assay type: cell-based, human; conditions: KMS-26, 6 days
Experimental: as §1, §2

[17] = test system: KMS-27 cells; test: MM cell growth, CellTiter-Glo, 6 days; assay type: cell-based, human; conditions: KMS-27, 6 days
Experimental: as §1, §2

[18] = test system: KMS-28BM cells; test: MM cell growth, CellTiter-Glo, 6 days; assay type: cell-based, human
Experimental: as §1, §2

[19] = test system: MM.1R cells; test: MM cell growth, CellTiter-Glo, 6 days; assay type: cell-based, human
Experimental: as §1, §2

[20] = test system: MM.1S cells; test: MM cell growth, CellTiter-Glo, 6 days; assay type: cell-based, human
Experimental: as §1, §2

[21] = test system: RPMI8226 cells; test: MM cell growth, CellTiter-Glo, 6 days; assay type: cell-based, human; conditions: RPMI8226, 6 days
Experimental: as §1, §2

[22] = test system: U266B1 cells; test: MM cell growth, CellTiter-Glo, 6 days; assay type: cell-based, human; conditions: U266B1, 6 days
Experimental: as §1, §2

[23] = test system: acute myeloid leukemia, colon cancer, or lung cancer cell lines; test: Proliferation of non-MM cancer cell lines, 6 days; assay type: cell-based, human
Experimental: as §2
6 days. Relative ATP concentration was calculated based on chemiluminescence relative to the 0 nM value (control). Data are presented as
mean ± standard deviation (n = 3).
(§3) (1 picture or pasted object on this page, not shown here)

[24] = test system: BAF155 dimethylation in NCI-H929 cells; test: BAF155 dimethylation in MM cells, western blotting; assay type: cell-based, human
Experimental: (§8) The lysates were separated by SDS-polyacrylamide gel electrophoresis and transferred to a nitrocellulose membrane using an iBlot Transfer Stack and iBlot Gel Transfer Device (Thermo Fisher Scientific, Waltham, MA, USA). […] The membrane was incubated with ImmunoStar LD (Wako Pure Chemical Industries, Osaka, Japan), and signals were detected with an ImageQuant LAS-3000 imaging system (Fujifilm, Tokyo, Japan).

[25] = test system: BAF155 dimethylation in KMS-27 cells; test: BAF155 dimethylation in MM cells, western blotting; assay type: cell-based, human
Experimental: as §8

[26] = test system: BAF155 dimethylation in U266B1 cells; test: BAF155 dimethylation in MM cells, western blotting; assay type: cell-based, human
Experimental: as §8

[27] = test system: NCI-H929 cells; test: Cell cycle analysis by flow cytometry (DNA content); assay type: cell-based, human; conditions: for G1 cell fraction / G2-M cell fraction / S cell fraction / sub-G1 cell fraction: NCI-H929, 1 μM, 72 h
Experimental: To measure DNA content for cell cycle distribution analysis, cells were incubated with 70% ethanol/PBS (v/v) overnight. Fixed cells were stained with propidium iodide and analyzed on a FACS LSRFortessa system (BD Biosciences, Franklin Lakes, NJ, USA).

[28] = test system: K562 cells; test: K562 cell viability, SYTOX Blue flow cytometry; assay type: cell-based; conditions: 3 μM TP-064, 5 μM SGC0946, 6 days; preliminary experiments
Experimental: as §2
growth. […] The inhibitors were topped up after
3 days. After 6 days, cells were stained with SYTOX Blue dead cell stain and the number of viable cells was determined by flow cytometry.
Data are presented as mean ± SD (n = 5). The predicted additive effect was calculated as Fa + Fb × (1 − Fa), where Fa and Fb are the
as §3

[29] = target: T7, PRMT4; test: Substrate competition assay (mechanism of action); assay type: biochemical; set-up: 1–608; made in house; conditions: versus SAM and substrate peptide
Experimental: The substrate competition assays were performed by measuring IC50 values at various concentrations of one substrate (e.g., peptide) and at saturating concentrations of the other (e.g., SAM) and vice versa, as previously described.

[30] = target: T8, PRMT1 (Homo sapiens, UniProt Q99873); test: PRMT1 methyltransferase scintillation proximity assay; assay type: biochemical
T8 construct: 30–371; made in house
Experimental: as §4

[31] = target: T7, PRMT4; test: PRMT4 methyltransferase scintillation proximity assay; assay type: biochemical; set-up: 1–608; made in house
Experimental: as §4

T6 sequence (Q6P2P2 whole entry): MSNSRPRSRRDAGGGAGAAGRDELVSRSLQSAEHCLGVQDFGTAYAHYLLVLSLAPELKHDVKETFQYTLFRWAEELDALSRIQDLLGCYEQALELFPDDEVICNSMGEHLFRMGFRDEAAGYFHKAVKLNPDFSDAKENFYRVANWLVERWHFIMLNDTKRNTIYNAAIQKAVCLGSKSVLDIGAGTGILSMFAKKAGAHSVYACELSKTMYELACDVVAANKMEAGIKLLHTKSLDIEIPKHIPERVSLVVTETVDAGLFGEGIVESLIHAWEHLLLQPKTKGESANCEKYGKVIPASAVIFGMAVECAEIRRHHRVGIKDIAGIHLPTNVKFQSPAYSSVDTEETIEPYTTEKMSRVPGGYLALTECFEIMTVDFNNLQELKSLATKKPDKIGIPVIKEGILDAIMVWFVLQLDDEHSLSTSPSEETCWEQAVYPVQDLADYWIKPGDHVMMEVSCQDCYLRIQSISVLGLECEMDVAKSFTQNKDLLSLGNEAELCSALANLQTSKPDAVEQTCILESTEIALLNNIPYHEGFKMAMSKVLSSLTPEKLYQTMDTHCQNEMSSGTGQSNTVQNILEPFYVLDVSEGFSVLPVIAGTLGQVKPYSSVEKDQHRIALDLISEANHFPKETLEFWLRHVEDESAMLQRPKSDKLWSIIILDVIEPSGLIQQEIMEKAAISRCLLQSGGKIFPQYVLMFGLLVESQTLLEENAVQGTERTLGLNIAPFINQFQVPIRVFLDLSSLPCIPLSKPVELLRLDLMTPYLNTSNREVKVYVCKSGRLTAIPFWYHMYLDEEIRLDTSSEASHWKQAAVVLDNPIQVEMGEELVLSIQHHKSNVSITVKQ
T4 sequence (Q9NVM4 whole entry): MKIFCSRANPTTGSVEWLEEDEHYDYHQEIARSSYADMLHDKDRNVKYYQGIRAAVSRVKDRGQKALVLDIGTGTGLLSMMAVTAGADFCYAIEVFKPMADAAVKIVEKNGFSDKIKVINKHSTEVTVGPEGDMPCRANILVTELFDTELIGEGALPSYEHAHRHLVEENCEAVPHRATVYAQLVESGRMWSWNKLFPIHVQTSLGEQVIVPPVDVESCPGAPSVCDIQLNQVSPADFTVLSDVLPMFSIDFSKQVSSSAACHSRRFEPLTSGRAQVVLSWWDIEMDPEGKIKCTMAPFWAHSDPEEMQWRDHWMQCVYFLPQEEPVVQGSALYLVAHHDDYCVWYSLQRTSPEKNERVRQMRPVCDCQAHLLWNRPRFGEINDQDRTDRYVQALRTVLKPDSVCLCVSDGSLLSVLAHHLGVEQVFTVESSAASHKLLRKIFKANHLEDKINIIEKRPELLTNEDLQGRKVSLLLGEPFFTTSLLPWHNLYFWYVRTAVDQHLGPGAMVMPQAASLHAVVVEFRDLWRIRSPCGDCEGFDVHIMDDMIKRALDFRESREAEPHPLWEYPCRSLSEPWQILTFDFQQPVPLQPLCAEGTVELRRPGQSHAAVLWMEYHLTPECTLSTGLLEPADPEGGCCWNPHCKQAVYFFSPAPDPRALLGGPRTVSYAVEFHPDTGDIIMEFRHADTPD
T2 sequence (O60678 211-531 limits assumed): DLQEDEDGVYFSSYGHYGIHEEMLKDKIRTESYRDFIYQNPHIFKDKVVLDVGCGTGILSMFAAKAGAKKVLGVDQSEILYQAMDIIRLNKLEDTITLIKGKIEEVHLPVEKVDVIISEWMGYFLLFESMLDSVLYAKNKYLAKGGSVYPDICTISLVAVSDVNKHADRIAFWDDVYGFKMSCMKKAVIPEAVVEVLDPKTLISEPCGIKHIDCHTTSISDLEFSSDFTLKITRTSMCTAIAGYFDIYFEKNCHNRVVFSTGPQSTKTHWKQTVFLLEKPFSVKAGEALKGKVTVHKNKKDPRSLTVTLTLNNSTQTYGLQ
T3 sequence (O14744 whole entry): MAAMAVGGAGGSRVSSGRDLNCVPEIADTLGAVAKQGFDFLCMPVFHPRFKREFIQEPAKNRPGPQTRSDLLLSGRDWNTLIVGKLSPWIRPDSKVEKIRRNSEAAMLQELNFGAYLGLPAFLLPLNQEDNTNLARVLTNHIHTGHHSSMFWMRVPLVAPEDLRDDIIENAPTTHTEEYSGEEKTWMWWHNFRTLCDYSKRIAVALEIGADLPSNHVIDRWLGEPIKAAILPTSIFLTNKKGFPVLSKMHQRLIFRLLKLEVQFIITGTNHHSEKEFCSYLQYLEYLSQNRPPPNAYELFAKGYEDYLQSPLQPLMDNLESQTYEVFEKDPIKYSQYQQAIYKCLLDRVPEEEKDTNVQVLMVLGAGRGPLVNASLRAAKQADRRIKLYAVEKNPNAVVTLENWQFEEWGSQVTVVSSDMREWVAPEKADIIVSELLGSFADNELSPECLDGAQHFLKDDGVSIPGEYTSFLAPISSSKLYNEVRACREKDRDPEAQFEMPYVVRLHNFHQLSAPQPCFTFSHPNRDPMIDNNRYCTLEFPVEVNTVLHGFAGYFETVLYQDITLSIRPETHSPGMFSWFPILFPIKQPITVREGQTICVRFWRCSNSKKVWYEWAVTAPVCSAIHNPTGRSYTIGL
T3 sequence (Q9BQA1 whole entry partner): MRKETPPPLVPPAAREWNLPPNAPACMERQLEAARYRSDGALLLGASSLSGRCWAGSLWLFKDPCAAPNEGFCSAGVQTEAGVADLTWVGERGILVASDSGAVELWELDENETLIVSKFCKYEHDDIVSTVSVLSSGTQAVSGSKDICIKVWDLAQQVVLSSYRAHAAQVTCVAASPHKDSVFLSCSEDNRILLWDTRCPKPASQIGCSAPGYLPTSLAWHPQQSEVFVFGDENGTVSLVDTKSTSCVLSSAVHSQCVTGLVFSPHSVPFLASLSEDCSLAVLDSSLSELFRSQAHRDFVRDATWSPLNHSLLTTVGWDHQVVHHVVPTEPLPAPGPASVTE
T1 sequence (Q96LA8 whole entry): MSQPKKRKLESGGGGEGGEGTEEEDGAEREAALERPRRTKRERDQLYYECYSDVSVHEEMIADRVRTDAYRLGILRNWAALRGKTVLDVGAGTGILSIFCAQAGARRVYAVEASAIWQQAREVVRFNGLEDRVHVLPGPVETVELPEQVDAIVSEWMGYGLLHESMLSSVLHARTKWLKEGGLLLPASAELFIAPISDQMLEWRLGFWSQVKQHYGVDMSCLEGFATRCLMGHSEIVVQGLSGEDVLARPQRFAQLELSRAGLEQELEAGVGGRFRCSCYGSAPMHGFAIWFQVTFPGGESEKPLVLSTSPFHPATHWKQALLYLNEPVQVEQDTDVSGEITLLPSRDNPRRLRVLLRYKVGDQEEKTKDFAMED
T5 sequence (Q9NR22 whole entry): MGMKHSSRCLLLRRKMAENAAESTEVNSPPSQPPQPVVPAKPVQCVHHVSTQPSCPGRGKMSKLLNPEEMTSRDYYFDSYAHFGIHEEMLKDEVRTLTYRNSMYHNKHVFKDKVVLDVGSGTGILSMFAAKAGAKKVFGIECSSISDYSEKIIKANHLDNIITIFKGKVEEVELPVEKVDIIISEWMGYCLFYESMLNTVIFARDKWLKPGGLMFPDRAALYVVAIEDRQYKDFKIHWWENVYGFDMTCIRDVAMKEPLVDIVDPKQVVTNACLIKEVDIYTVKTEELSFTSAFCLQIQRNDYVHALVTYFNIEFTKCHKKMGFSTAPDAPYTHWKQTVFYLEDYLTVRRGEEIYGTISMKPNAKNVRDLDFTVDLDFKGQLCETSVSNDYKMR
T8 sequence (Q99873 30-371): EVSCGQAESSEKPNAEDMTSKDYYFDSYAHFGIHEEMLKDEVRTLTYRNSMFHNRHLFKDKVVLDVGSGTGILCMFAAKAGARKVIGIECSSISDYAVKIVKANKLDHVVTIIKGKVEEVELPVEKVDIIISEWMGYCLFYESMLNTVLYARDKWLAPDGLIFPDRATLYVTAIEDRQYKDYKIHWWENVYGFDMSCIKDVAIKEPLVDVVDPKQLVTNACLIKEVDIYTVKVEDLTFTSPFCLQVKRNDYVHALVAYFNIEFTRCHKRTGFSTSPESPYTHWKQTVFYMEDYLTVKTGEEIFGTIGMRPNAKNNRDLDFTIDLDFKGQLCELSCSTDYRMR

CNCCN1CCC(c2cc(CN(C)C(=O)c3cccc(Oc4ccccc4)c3)ccn2)CC1 [TP-064, N-methyl-N-((2-(1-(2-(methylamino)ethyl)piperidin-4-yl)pyridin-4-yl)methyl)-3-phenoxybenzamide]
IC50 [1]: 1300 ± 400 nM
IC50 [2]: > 10000 nM
IC50 [3]: > 10000 nM
IC50 [4]: > 10000 nM
IC50 [5]: 8100 ± 600 nM
IC50 [6]: > 10000 nM
IC50 [7]: > 10000 nM
inhibition of other methyltransferases [7]: did not inhibit
increase of aggregation temperature (Tagg), DSLS [8]: about 6 °C
IC50 ([9]; Homo sapiens, 72 h): 340 ± 30 nM
IC50 ([10]; Homo sapiens, 72 h): 43 ± 10 nM
growth inhibition in cancer cell panel [11]: inhibited the growth of a subset of MM cell lines
Growth at 3 μM (%) [12]: -17.2%
Growth at 3 μM (%) [13]: -8.2%
Growth at 3 μM (%) [14]: -4.4%
Growth at 3 μM (%) [15]: -22.5%
Growth at 3 μM (%) [16]: -19.5%
Growth at 3 μM (%) [17]: -17.2%
Growth at 3 μM (%) [18]: -24.1%
Growth at 3 μM (%) [19]: -37.8%
Growth at 3 μM (%) [20]: -31.0%
IC50 ([21]; Homo sapiens, RPMI-8226, 144 h): 886 nM
Growth at 3 μM (%) [21]: -58.3%
Growth at 3 μM (%) [22]: -24.4%
anti-proliferative activity [23]: did not exhibit; also recorded: no effect
IC50 ([24]; Homo sapiens, 72 h, NCI-H929, 3 days, read-out: methyl / total BAF155 IC50): 716 nM
IC50 ([25]; Homo sapiens, 72 h, KMS-27, 3 days, read-out: methyl / total BAF155 IC50): 400 nM
IC50 ([26]; Homo sapiens, 72 h, U266B1, 3 days, read-out: methyl / total BAF155 IC50): 486 nM
G1 cell fraction [27]: 63.5%
G2-M cell fraction [27]: 20.2%
S cell fraction [27]: 7.89%
sub-G1 cell fraction [27]: 5.73%
cytotoxic response of K562 cells [28]: weak response
mode of inhibition [29]: non-competitive

COCCN1CCC(c2cc(CN(C)C(=O)c3cccc(Oc4ccccc4)c3)ccn2)CC1 [TP-064N, N-((2-(1-(2-methoxyethyl)piperidin-4-yl)pyridin-4-yl)methyl)-N-methyl-3-phenoxybenzamide]
IC50 [1]: > 10000 nM
IC50 [30]: > 10000 nM
IC50 [2]: > 10000 nM
IC50 [3]: > 10000 nM
IC50 [4]: > 10000 nM
IC50 [5]: > 10000 nM
IC50 [6]: > 10000 nM
IC50 [7]: > 10000 nM
inhibition of other methyltransferases [7]: completely inactive
inhibition of BAF155 dimethylation ([9]; up to 10 μM): did not inhibit
inhibition of MED12 dimethylation ([10]; up to 10 μM): did not inhibit
effect on dimethyl-BAF155 level ([24]; NCI-H929, 72 h): no effect
effect on dimethyl-BAF155 level ([25]; KMS-27, 72 h): no effect
effect on dimethyl-BAF155 level ([26]; U266B1, 72 h): no effect
effect on cell cycle ([27]; NCI-H929): no/little effect
G1 cell fraction [27]: 53.2%
G2-M cell fraction [27]: 24.1%
S cell fraction [27]: 13.2%
sub-G1 cell fraction [27]: 5.14%
IC50 [31]: 2500 ± 600 nM

Source: article PMC5915086 (Oncotarget, 2018)
